Measured values from the NIST ThermoML archive (doi:10.1021/je0601208).
± gives the expanded uncertainty stated by the source.

Assays:
[1] = refractive index (Na D-line) (dimensionless); xn = mol fraction of the nth substance listed; conditions: 100.5 kPa, Liquid, Standard Abbe refractometry
[2] = xn = mol fraction of the nth substance listed

CC(=O)OCCC(C)C [3-methylbutyl ethanoate] + CCO
Conditions | refractive index, [1] | surface tension liquid-gas, [2] [mN/m]
288.15 K, x1 = 0.05 | 1.36803 ± 0.00031 | 23.2 ± 0.4
288.15 K, x1 = 0.1 | 1.37207 ± 0.00031 | 23.4 ± 0.4
288.15 K, x1 = 0.15 | 1.37559 ± 0.00032 | 23.6 ± 0.4
288.15 K, x1 = 0.2 | 1.3787 ± 0.00032 | 23.7 ± 0.4
288.15 K, x1 = 0.25 | 1.38146 ± 0.00032 | 23.8 ± 0.4
288.15 K, x1 = 0.3 | 1.38393 ± 0.00032 | 24 ± 0.4
288.15 K, x1 = 0.35 | 1.38614 ± 0.00032 | 24.1 ± 0.4
288.15 K, x1 = 0.4 | 1.38814 ± 0.00032 | 24.2 ± 0.4
288.15 K, x1 = 0.45 | 1.38996 ± 0.00032 | 24.3 ± 0.4
288.15 K, x1 = 0.5 | 1.39164 ± 0.00032 | 24.4 ± 0.4
288.15 K, x1 = 0.55 | 1.39319 ± 0.00032 | 24.5 ± 0.4
288.15 K, x1 = 0.6 | 1.39462 ± 0.00033 | 24.6 ± 0.4
288.15 K, x1 = 0.65 | 1.39595 ± 0.00033 | 24.7 ± 0.4
288.15 K, x1 = 0.7 | 1.39717 ± 0.00033 | 24.8 ± 0.4
288.15 K, x1 = 0.75 | 1.39829 ± 0.00033 | 24.9 ± 0.4
288.15 K, x1 = 0.8 | 1.39933 ± 0.00033 | 25 ± 0.4
288.15 K, x1 = 0.85 | 1.40031 ± 0.00034 | 25.1 ± 0.4
288.15 K, x1 = 0.9 | 1.40122 ± 0.00034 | 25.2 ± 0.4
288.15 K, x1 = 0.95 | 1.40207 ± 0.00034 | 25.3 ± 0.4
288.15 K, x1 = 1 | 1.40288 ± 0.00034 | 25.4 ± 0.4
298.15 K, x1 = 0.05 | 1.36393 ± 0.00031 | 22.4 ± 0.4
298.15 K, x1 = 0.1 | 1.36787 ± 0.00031 | 22.5 ± 0.4
298.15 K, x1 = 0.15 | 1.37133 ± 0.00032 | 22.7 ± 0.4
298.15 K, x1 = 0.2 | 1.3744 ± 0.00032 | 22.8 ± 0.4
298.15 K, x1 = 0.25 | 1.37712 ± 0.00032 | 22.9 ± 0.4
298.15 K, x1 = 0.3 | 1.37954 ± 0.00032 | –
298.15 K, x1 = 0.35 | 1.38172 ± 0.00032 | 23 ± 0.4
298.15 K, x1 = 0.4 | 1.3837 ± 0.00032 | 23.1 ± 0.4
298.15 K, x1 = 0.45 | 1.3855 ± 0.00032 | 23.2 ± 0.4
298.15 K, x1 = 0.5 | 1.38717 ± 0.00032 | 23.3 ± 0.4
298.15 K, x1 = 0.55 | 1.38871 ± 0.00032 | 23.4 ± 0.4
298.15 K, x1 = 0.6 | 1.39013 ± 0.00033 | 23.5 ± 0.4
298.15 K, x1 = 0.65 | 1.39144 ± 0.00033 | 23.6 ± 0.4
298.15 K, x1 = 0.7 | 1.39265 ± 0.00033 | 23.7 ± 0.4
298.15 K, x1 = 0.75 | 1.39378 ± 0.00033 | 23.8 ± 0.4
298.15 K, x1 = 0.8 | 1.39482 ± 0.00033 | 23.9 ± 0.4
298.15 K, x1 = 0.85 | 1.3958 ± 0.00034 | 24 ± 0.4
298.15 K, x1 = 0.9 | 1.3967 ± 0.00034 | 24.1 ± 0.4
298.15 K, x1 = 0.95 | 1.39755 ± 0.00034 | 24.2 ± 0.4
298.15 K, x1 = 1 | 1.39836 ± 0.00034 | 24.3 ± 0.4
308.15 K, x1 = 0.05 | 1.35964 ± 0.00031 | 21.6 ± 0.4
308.15 K, x1 = 0.1 | 1.36349 ± 0.00031 | 21.6 ± 0.4
308.15 K, x1 = 0.15 | 1.3669 ± 0.00032 | 21.7 ± 0.4
308.15 K, x1 = 0.2 | 1.36992 ± 0.00032 | 21.8 ± 0.4
308.15 K, x1 = 0.25 | 1.3726 ± 0.00032 | 21.9 ± 0.4
308.15 K, x1 = 0.3 | 1.37499 ± 0.00032 | 22 ± 0.4
308.15 K, x1 = 0.35 | 1.37714 ± 0.00032 | 22.1 ± 0.4
308.15 K, x1 = 0.4 | 1.37909 ± 0.00032 | 22.2 ± 0.4
308.15 K, x1 = 0.45 | 1.38087 ± 0.00032 | 22.3 ± 0.4
308.15 K, x1 = 0.5 | 1.38251 ± 0.00032 | 22.4 ± 0.4
308.15 K, x1 = 0.55 | 1.38404 ± 0.00032 | 22.5 ± 0.4
308.15 K, x1 = 0.6 | 1.38545 ± 0.00033 | 22.6 ± 0.4
308.15 K, x1 = 0.65 | 1.38675 ± 0.00033 | 22.7 ± 0.4
308.15 K, x1 = 0.7 | 1.38795 ± 0.00033 | 22.8 ± 0.4
308.15 K, x1 = 0.75 | 1.38907 ± 0.00033 | 22.9 ± 0.4
308.15 K, x1 = 0.8 | 1.39011 ± 0.00033 | 23 ± 0.4
308.15 K, x1 = 0.85 | 1.39109 ± 0.00034 | 23.1 ± 0.4
308.15 K, x1 = 0.9 | 1.39199 ± 0.00034 | 23.2 ± 0.4
308.15 K, x1 = 0.95 | 1.39284 ± 0.00034 | 23.3 ± 0.4
308.15 K, x1 = 1 | 1.39365 ± 0.00034 | 23.4 ± 0.4
318.15 K, x1 = 0.05 | 1.35556 ± 0.00031 | 20.6 ± 0.4
318.15 K, x1 = 0.1 | 1.3593 ± 0.00031 | 20.6 ± 0.4
318.15 K, x1 = 0.15 | 1.36263 ± 0.00032 | 20.7 ± 0.4
318.15 K, x1 = 0.2 | 1.36558 ± 0.00032 | 20.8 ± 0.4
318.15 K, x1 = 0.25 | 1.36821 ± 0.00032 | 20.9 ± 0.4
318.15 K, x1 = 0.3 | 1.37056 ± 0.00032 | 21 ± 0.4
318.15 K, x1 = 0.35 | 1.37268 ± 0.00032 | 21.1 ± 0.4
318.15 K, x1 = 0.4 | 1.3746 ± 0.00032 | 21.2 ± 0.4
318.15 K, x1 = 0.45 | 1.37634 ± 0.00032 | 21.3 ± 0.4
318.15 K, x1 = 0.5 | 1.37795 ± 0.00032 | 21.4 ± 0.4
318.15 K, x1 = 0.55 | 1.37944 ± 0.00032 | 21.5 ± 0.4
318.15 K, x1 = 0.6 | 1.38082 ± 0.00033 | 21.6 ± 0.4
318.15 K, x1 = 0.65 | 1.38211 ± 0.00033 | 21.7 ± 0.4
318.15 K, x1 = 0.7 | 1.3833 ± 0.00033 | 21.8 ± 0.4
318.15 K, x1 = 0.75 | 1.3844 ± 0.00033 | 21.9 ± 0.4
318.15 K, x1 = 0.8 | 1.38543 ± 0.00033 | 22 ± 0.4
318.15 K, x1 = 0.85 | 1.3864 ± 0.00034 | 22.1 ± 0.4
318.15 K, x1 = 0.9 | 1.3873 ± 0.00034 | 22.2 ± 0.4
318.15 K, x1 = 0.95 | 1.38814 ± 0.00034 | 22.3 ± 0.4
318.15 K, x1 = 1 | 1.38895 ± 0.00034 | 22.4 ± 0.4
